Source: patent US8722663B2, “Di-substituted pyridine derivatives as anticancers” (Otsuka Pharmaceutical Co., Ltd., priority 2010, dated 2014)
Where a name gives a salt, the structure may show the parent alone.

How the values were obtained:
[1] = tested on: human hepatic cancer cell line (HuH-7); experiment: Growth inhibition of HuH-7 cells, sulforhodamine B method; assay type: cell-based; conditions: Homo sapiens, 120 h, 5 days with test compound
Description: (§1) Growth inhibition of a human breast cancer cell line (MDA-MB-468) was determined by the sulforhodamine B method based on the method of Skehan P. et al. (J Natl Cancer Inst. 1990 Jul. 4; 82(13): 1107-12). In the study, MDA-MB-468 cells were seeded on DMEM medium containing 10% fetal bovine serum in a 96-well microplate. After 24-h incubation at 37° C. in the presence of 5% carbon dioxide, the test compound was added and the cells were incubated for another 5 days. After incubation, a trichloroacetic acid solution was added to yield the final concentration of 10% and the cells were left to stand at 4° C. for 1 hour to fix. Then, the cells were washed with water to remove the medium and trichloroacetic acid and dried in the air. The dried cells were stored at 4° C. until they were stained with sulforhodamine B. To each well, 1% acetic acid solution containing 0.4% sulforhodamine B was added and left to stand for 20 to 30 minutes at room temperature. After discarding the supernatant, each well was washed with 1% acetic acid solution, and 10 mM Tris([…]) solution was added while stirring to elute the dye taken into the cells. Then, the optical density was determined at the measurement wavelength of 492 nm and the reference wavelength of 690 nm, and the difference was calculated. The cell growth activity in each well was defined as the value determined by subtracting the OD in the control well not containing cells (the difference in absorbance between 492 nm and 690 nm) from that in the test well.
(§2) The 50% inhibitory concentration (IC50 (nM)) of the test compound was determined by comparing the cell growth activity in the well containing the test compound with that of the control not containing the test compound.
The growth inhibition on a human hepatic cancer cell line (HuH-7) was also determined by the above method.

[2] = tested on: human breast cancer cell line (MDA-MB-468); experiment: Growth inhibition of MDA-MB-468 cells, sulforhodamine B method; assay type: cell-based; conditions: 120 h, 5 days with test compound
Description: as §1, §2

SMILES: Cc1ccc(CN2CCN(C(=O)/C=C/c3cc(C)c(Oc4ccc(OCc5ccc(C(C)C)cc5)cn4)c(Cl)c3)CC2)cc1 [Example 358, (E)-3-{3-Chloro-5-methyl-4-[(5-{[4-(propan-2-yl)benzyl]oxy}pyridin-2-yl)oxy]phenyl}-1-[4-(4-methylbenzyl)piperazin-1-yl]prop-2-en-1-one]
- IC50 [1]: < 10 nM

SMILES: CCOc1ccc(OCCOc2ccc(CN3CCN(C(=O)/C=C/c4cc(C)c(Oc5ccc(OCc6ccc(C)cc6)cn5)c(Cl)c4)CC3)cc2)cc1 [Example 315, (E)-3-[3-Chloro-5-methyl-4-({5-[(4-methylbenzyl)oxy]pyridin-2-yl}oxy)phenyl]-1-(4-{4-[2-(4-ethoxyphenoxy)ethoxy]benzyl}piperazin-1-yl)prop-2-en-1-one]
- IC50 [1]: < 10 nM

SMILES: Cc1ccc(CN2CCN(C(=O)/C=C/c3cc(C)c(Oc4ccc(OCc5ccc(F)cc5)cn4)c(Cl)c3)CC2)cc1.Cl [Example 779, (E)-3-[3-Chloro-4-({5-[(4-fluorobenzyl)oxy]pyridin-2-yl}oxy)-5-methylphenyl]-1-[4-(4-methylbenzyl)piperazin-1-yl]prop-2-en-1-one hydrochloride]
- IC50 [2]: < 10 nM
- melting point: 223.9 to 224.5 °C

SMILES: Cc1cc(/C=C/C(=O)N2CCN(Cc3ccc(COc4ccc(F)cc4)c(F)c3)CC2)cc(Cl)c1Oc1ccc(OCc2ccc(C#N)cc2)cn1.Cl [Example 641, 4-{[(6-{2-Chloro-4-[(E)-3-(4-{3-fluoro-4-[(4-fluorophenoxy)methyl]benzyl}piperazin-1-yl)-3-oxoprop-1-en-1-yl]-6-methylphenoxy}pyridin-3-yl)oxy]methyl}benzonitrile hydrochloride]
- IC50 [2]: < 10 nM
- melting point: 218 to 220.5 °C

SMILES: Cc1cc(/C=C/C(=O)N2CCN(Cc3ccc(Cl)cc3)CC2)cc(Cl)c1Oc1ccc(OCCc2ccc(Cl)cc2)cn1.Cl [Example 765, (E)-1-[4-(4-Chlorobenzyl)piperazin-1-yl]-3-[3-chloro-4-({5-[2-(4-chlorophenyl)ethoxy]pyridin-2-yl}oxy)-5-methylphenyl]prop-2-en-1-one hydrochloride]
- IC50 [2]: < 10 nM
- melting point: 220 to 220.9 °C

SMILES: Cc1cc(/C=C/C(=O)N2CCN(Cc3ccc(COc4ccc(OC(C)C)cc4)c(F)c3)CC2)cc(Cl)c1Oc1ccc(OCc2ccc(C#N)cc2)cn1.Cl [Example 640, 4-({[6-(2-Chloro-4-{(E)-3-[4-(3-fluoro-4-{[4-(propan-2-yloxy)phenoxy]methyl}benzyl)-piperazin-1-yl]-3-oxoprop-1-en-1-yl}-6-methylphenoxy)pyridin-3-yl]oxy}methyl)benzonitrile hydrochloride]
- IC50 [2]: < 10 nM
- melting point: 141.8 to 141.9 °C

SMILES: Cc1cc(/C=C/C(=O)N2CCN(Cc3ccc(CCCOc4ccc(F)cc4)cc3)CC2)cc(Cl)c1Oc1ccc(OCc2ccc(C#N)cc2)cn1.Cl [Example 618, 4-{[(6-{2-Chloro-4-[(E)-3-(4-{4-[3-(4-fluorophenoxy)propyl]benzyl}piperazin-1-yl)-3-oxoprop-1-en-1-yl]-6-methylphenoxy}pyridin-3-yl)oxy]methyl}benzonitrile hydrochloride]
- IC50 [2]: < 10 nM
- melting point: 166.2 to 166.7 °C

SMILES: Cc1ccc(COc2ccc(Oc3c(C)cc(/C=C/C(=O)N4CCN(Cc5ccc(CC(C)Oc6ccc(C)cc6)cc5)CC4)cc3Cl)nc2)cc1 (centres unmarked) [Example 534, (E)-3-[3-Chloro-5-methyl-4-({5-[(4-methylbenzyl)oxy]pyridin-2-yl}oxy)phenyl]-1-(4-{4-[2-(4-methylphenoxy)propyl]benzyl}piperazin-1-yl)prop-2-en-1-one hydrochloride]
- IC50 [2]: < 10 nM

SMILES: Br.C/C(C(=O)N1CCN(Cc2ccc(CCOc3ccc(C)cc3)cc2)CC1)=C(/C)c1cc(C)c(Oc2ccc(OCc3ccc(C)cc3)cn2)c(Cl)c1 [Example 706, (E)-3-[3-Chloro-5-methyl-4-({5-[(4-methylbenzyl)oxy]pyridin-2-yl}oxy)phenyl]-2-methyl-1-(4-{4-[2-(4-methylphenoxy)ethyl]benzyl}piperazin-1-yl)but-2-en-1-one hydrobromide]
- IC50 [2]: < 10 nM
- melting point: 205.5 to 206.5 °C

SMILES: COc1ccc(COc2ccc(Oc3c(C)cc(/C=C/C(=O)N4CCN(Cc5ccc(CC(C)Oc6ccc(F)cc6)cc5)CC4)cc3C)nc2)cc1 (centres unmarked) [Example 725, (E)-1-(4-{4-[2-(4-Fluorophenoxy)propyl]benzyl}piperazin-1-yl)-3-[4-({5-[(4-methoxybenzyl)-oxy]pyridin-2-yl}oxy)-3,5-dimethylphenyl]prop-2-en-1-one hydrobromide]
- IC50 [2]: < 10 nM

SMILES: Cc1cc(/C=C/C(=O)N2CCN(Cc3ccc(CCOc4ccc(Cl)cc4)c(F)c3)CC2)cc(C)c1Oc1ccc(OCc2ccc(C#N)cc2)cn1.Cl [Example 614, 4-{[(6-{4-[(E)-3-(4-{4-[2-(4-Chlorophenoxy)ethyl]-3-fluorobenzyl}piperazin-1-yl)-3-oxoprop-1-en-1-yl]-2,6-dimethylphenoxy}pyridin-3-yl)oxy]methyl}benzonitrile hydrochloride]
- IC50 [2]: < 10 nM
- melting point: 240.5 to 243.5 °C

SMILES: Cc1cc(/C=C/C(=O)N2CCN(Cc3ccc(COc4ccc(C(C)C)cc4)cc3)CC2)cc(C)c1Oc1ccc(OCc2cscn2)cn1 [Example 648, (E)-3-(3,5-Dimethyl-4-{[5-(1,3-thiazol-4-ylmethoxy)pyridin-2-yl]oxy}phenyl)-1-[4-(4-{[4-(propan-2-yl)phenoxy]methyl}benzyl)piperazin-1-yl]prop-2-en-1-one hydrochloride]
- IC50 [2]: < 10 nM

SMILES: C/C(=C\c1cc(C)c(Oc2ccc(OCc3ccc(C)cc3)cn2)c(Cl)c1)C(=O)N1CCN(Cc2ccc(CCOc3ccc(C)cc3)cc2)CC1.Cl [Example 411, (E)-3-[3-Chloro-5-methyl-4-({5-[(4-methylbenzyl)oxy]pyridin-2-yl}oxy)phenyl]-2-methyl-1-(4-{4-[2-(4-methylphenoxy)ethyl]benzyl}piperazin-1-yl)prop-2-en-1-one hydrochloride]
- IC50 [2]: < 10 nM
- melting point: 134.7 to 136.4 °C

SMILES: Cc1cc(/C=C/C(=O)N2CCN(Cc3ccc(CCOc4ccc(C(F)(F)F)cc4)cc3F)CC2)cc(C)c1Oc1ccc(OCc2ccc(C#N)cc2)cn1 [Example 616, 4-({[6-(4-{(E)-3-[4-(2-Fluoro-4-{2-[4-(trifluoromethyl)phenoxy]ethyl}benzyl)piperazin-1-yl]-3-oxoprop-1-en-1-yl}-2,6-dimethylphenoxy)pyridin-3-yl]oxy}methyl)benzonitrile hydrochloride]
- IC50 [2]: < 10 nM

SMILES: Cc1cc(/C=C/C(=O)N2CCN(Cc3ccc(CCOc4ccc(F)cc4)cc3)CC2)cc(Cl)c1Oc1ccc(OCc2cccc(Cl)c2F)cn1.Cl [Example 485, (E)-3-[3-Chloro-4-({5-[(3-chloro-2-fluorobenzyl)oxy]pyridin-2-yl}oxy)-5-methylphenyl]-1-(4-{4-[2-(4-fluorophenoxy)ethyl]benzyl}piperazin-1-yl)prop-2-en-1-one hydrochloride]
- IC50 [2]: < 10 nM
- melting point: 228.9 to 229.4 °C

SMILES: Cc1ccc(COc2ccc(Oc3c(C)cc(/C=C/C(=O)N4CCN(Cc5ccc(C)cc5)CC4)cc3Cl)nc2)cc1 [Example 359, (E)-3-[3-Chloro-5-methyl-4-({5-[(4-methylbenzyl)oxy]pyridin-2-yl}oxy)phenyl]-1-[4-(4-methylbenzyl)piperazin-1-yl]prop-2-en-1-one]
- IC50 [2]: < 10 nM

SMILES: Cc1ccc(CN2CCN(C(=O)/C=C/c3cc(C)c(Oc4ccc(OCc5ccc(Cl)cc5)cn4)c(Cl)c3)CC2)cc1.Cl [Example 781, (E)-3-[3-Chloro-4-({5-[(4-chlorobenzyl)oxy]pyridin-2-yl}oxy)-5-methylphenyl]-1-[4-(4-methylbenzyl)piperazin-1-yl]prop-2-en-1-one hydrochloride]
- IC50 [2]: < 10 nM
- melting point: 223.1 to 224 °C

SMILES: Cc1ccc(OCCc2ccc(CN3CCN(C(=O)/C=C/c4cc(C)c(Oc5ccc(OCc6cccc(F)c6F)cn5)c(Cl)c4)CC3)cc2)cc1 [Example 487, (E)-3-[3-Chloro-4-({5-[(2,3-difluorobenzyl)oxy]pyridin-2-yl}oxy)-5-methylphenyl]-1-(4-{4-[2-(4-methylphenoxy)ethyl]benzyl}piperazin-1-yl)prop-2-en-1-one hydrochloride]
- IC50 [2]: < 10 nM

SMILES: C/C(=C\C(=O)N1CCN(Cc2ccc(CCOc3ccc(F)cc3)cc2)CC1)c1cc(C)c(Oc2ccc(OCc3ccc(C)cc3)cn2)c(Cl)c1.O=C(O)C(=O)O [Example 746, (E)-3-[3-Chloro-5-methyl-4-({5-[(4-methylbenzyl)oxy]pyridin-2-yl}oxy)phenyl]-1-(4-{4-[2-(4-fluorophenoxy)ethyl]benzyl}piperazin-1-yl)but-2-en-1-one ethanedioate]
- IC50 [2]: < 10 nM
- melting point: 211.3 to 211.7 °C

SMILES: Br.C/C(=C\C(=O)N1CCN(Cc2ccc(CCOc3ccc(C)cc3)cc2)CC1)c1cc(C)c(Oc2ccc(OCc3ccc(C)cc3)cn2)c(Cl)c1 [Example 708, (E)-3-[3-Chloro-5-methyl-4-({5-[(4-methylbenzyl)oxy]pyridin-2-yl}oxy)phenyl]-1-(4-{4-[2-(4-methylphenoxy)ethyl]benzyl}piperazin-1-yl)but-2-en-1-one hydrobromide]
- IC50 [2]: < 10 nM
- melting point: 156.5 to 158.2 °C
